Data as given in article PMC5874533 (Scientia Pharmaceutica, 2018).
Where two headings read alike, the source gives them in different places. Blank lines part the entries; values can stand above or below the compound they belong to.

Legend:
[1] = test system: Caco-2 cells; assay: Tolerability of enisamium iodide to Caco-2 cells (TEER); format: cell-based, human
Experimental: For this purpose, the cells were incubated with the highest dose supposed for the permeability studies (100 μM). After an incubation period of 120 min at 37 °C the TEER was checked to assess the integrity of the cell monolayers. […] All experiments were performed in triplicate. As a positive control, sodium dodecyl sulfate was used in this experiment.
The TEER was calculated according to TEER= Rc(A)=(Rc+f−Rf)A (Ω·cm^2). where Rc(A) is the electrical resistance of the monolayer with the area A (Ω cm^2); Rc+f is the electrical resistance of the monolayer including the filter (Ω); Rf is the electrical resistance of the filter without cells (Ω); and A is the area of the monolayer (cm^2).

[2] = biological target: P-glycoprotein (P-gp) (Homo sapiens, UniProt P08183)
Experimental: Transport studies. Caco-2 monolayers were rinsed twice with KRB to remove the cell culture medium. Fresh KRB (pH 7.4) was filled into the acceptor compartment and the transport solution (test substance in KRB at pH 7.4) into the donor compartment. The cells were equilibrated for 30 min in a CO2 incubator at 37 °C and stayed there between the sample collection points. After pre-incubation, samples were taken from the donor and acceptor compartment, respectively. The concentration of test compound in the donor compartment was defined as initial donor concentration. At 0 min, 30 min, 60 min, 90 min and 120 min 100 µL samples were drawn from the acceptor compartment. The amount of solution removed was replaced by fresh, pre-warmed KRB. At the final pull point, samples were retrieved from the donor compartment, too. All tests were carried out in triplicate. For studies including the P-glycoprotein (P-gp) inhibitor cyclosporin A and the marker compound for P-gp transport inhibitors, [^3H]-digoxin the substances were applied to both the donor and acceptor compartment in the same concentration. […]
[^3H]-propranolol and [^3H]-digoxin were quantified by liquid scintillation counting. […] After an equilibration period of at least 1 h radiation was measured for 2 min per well in a scintillation counter. The recorded counts in a blank sample were subtracted from the value of each test sample.
Data of the permeability study were calculated using MS Excel (Microsoft, Redmond, WA, USA). Apparent permeability coefficient (Papp) was calculated according to the following equation: Papp=ΔQ 1 1/Δt m0 A VD(cm·s^−1) where ΔQ/Δt is the permeability rate (steady state transport rate) obtained from the profile of the transported mass or radioactivity of substrate versus time (µg or dpm·s^−1). Calculated by the linear regression of time and concentration. A is the area of the exposed cell monolayer (cm^2), m0 is the initial mass or radioactivity of test compound in the donor compartment (µg or dpm), and VD is the buffer volume of donor compartment. […]

[3] = Caco-2 monolayer transport (permeability) study; format: in vitro ADME, human; conditions: human
Experimental: (§1) Cell culture. For the maintenance culture, Caco-2 cells were incubated at 37 °C, 5% CO2, and 90% relative humidity in 75 cm^2 culture flasks with supplemented Dulbecco's Modified Eagle's Medium (DMEM). The cells were passaged once a week using trypsin/ethylenediaminetetraacetic acid (EDTA) solution. Approximately 10^6 cells were seeded per flask. The culture medium was changed three times a week. For the transport studies, the Caco-2 cells were inoculated at a density of 60,000 cells/cm^2 on Transwell filter inserts and placed into 12-well flat-bottom cluster plates. The inserts (apical compartments) were supplied with 0.5 mL and the outer wells (basal compartments) with 1.5 mL of DMEM culture medium. The cells for the present transport study were cultured at 37 °C, 5% CO2 and 90% relative humidity in DMEM culture medium for 18 days until they formed confluent monolayers (31 passages). The culture medium was replaced every 2-3 days. […] Transport studies. […] All tests were carried out in triplicate. […] Testing of integrity of monolayers. Each batch of monolayer Caco-2 cells was inoculated and cultured under the same conditions on Transwell filter inserts in parallel. Qualification of intactness of the Caco-2 monolayer batches prior to the transport studies was carried out in triplicate for each transport condition using the selected transport markers fluorescein, [^3H]-propranolol and rhodamine 123. […] Mobile phase A consisted of 0.1% formic acid in water and mobile phase B of 0.1% formic acid in acetonitrile. […] The samples were kept at 10 °C and injected at a volume of 20 μL. The triple quad mass spectrometer system (Waters) was used in the positive (ESI^+) electrospray mode at 2.63 kV. […] Fluorescein and rhodamine 123 samples (100 μL) were determined by fluorescence reading. The samples were collected in 96 well microtiter plates. The fluorescence intensity was recorded by exciting the sample with light at 485 nm and measuring the emitted fluorescence at 535 nm. The fluorescence emission of a blank sample (Krebs-Ringer bicarbonate buffer (KRB) solution) was used as baseline.

[4] = Solubility study in buffer solutions pH 1.2-7.5 (shake flask, HPLC); format: physicochemical; conditions: for solubility at 48 h: hydrochloric acid/sodium chloride buffer pH 1.2, 37 °C, pH 1.2, 37 °C
Experimental: Solubility was investigated in four different buffer systems at two temperatures each.
Preparation of buffer solutions:
pH 1.2: 425.0 mL of 0.2 M hydrochloric acid solution, and 250.0 mL 0.2 M sodium chloride solution diluted to 1000 mL with water;
pH 6.8: 250.0 mL of 0.2 M monobasic potassium phosphate solution, 112.0 mL of 0.1 M sodium hydroxide solution diluted to 1000 mL with water;
pH 7.5: 250.0 mL of 0.2 M monobasic potassium phosphate solution, 112.0 mL of 0.1 M sodium hydroxide solution diluted to 1000 mL with water and adjusted to pH 7.5 with 0.1 M sodium hydroxide solution and.
Flow rate of the mobile phase: 0.5 mL min^−1 and a column temperature of 30 °C. The samples were injected at a volume of 10 µL with detection at wavelength 225 nm.
Preparation of the final test solution: Following stirring, the flask was allowed to deposit the excess amount of substance for 5 min. Thereafter, 1.0 mL of the supernatant was transferred into a 50 mL volumetric flask, dissolved in mobile phase, and adjusted to 50.0 mL with the same solvent. For the study at 25 °C, 5.0 mL of this solution was diluted to 20.0 mL with mobile phase. For the study at 37 °C, 5.0 mL of the solution was diluted to 50.0 mL with mobile phase.
10.0 mL of this solution was dissolved to 100.0 mL with mobile phase.

[5] = test system: Caco-2 cell monolayers; assay: Caco-2 monolayer transport (permeability) study; format: in vitro ADME, human; conditions: Caco-2, 10–100 μM
Experimental: as §1

[6] = Caco-2, pH 7.4, Caco-2, monolayer qualification marker, read-out: Papp (AB)

Chain of P-glycoprotein (P-gp) (P08183 whole entry): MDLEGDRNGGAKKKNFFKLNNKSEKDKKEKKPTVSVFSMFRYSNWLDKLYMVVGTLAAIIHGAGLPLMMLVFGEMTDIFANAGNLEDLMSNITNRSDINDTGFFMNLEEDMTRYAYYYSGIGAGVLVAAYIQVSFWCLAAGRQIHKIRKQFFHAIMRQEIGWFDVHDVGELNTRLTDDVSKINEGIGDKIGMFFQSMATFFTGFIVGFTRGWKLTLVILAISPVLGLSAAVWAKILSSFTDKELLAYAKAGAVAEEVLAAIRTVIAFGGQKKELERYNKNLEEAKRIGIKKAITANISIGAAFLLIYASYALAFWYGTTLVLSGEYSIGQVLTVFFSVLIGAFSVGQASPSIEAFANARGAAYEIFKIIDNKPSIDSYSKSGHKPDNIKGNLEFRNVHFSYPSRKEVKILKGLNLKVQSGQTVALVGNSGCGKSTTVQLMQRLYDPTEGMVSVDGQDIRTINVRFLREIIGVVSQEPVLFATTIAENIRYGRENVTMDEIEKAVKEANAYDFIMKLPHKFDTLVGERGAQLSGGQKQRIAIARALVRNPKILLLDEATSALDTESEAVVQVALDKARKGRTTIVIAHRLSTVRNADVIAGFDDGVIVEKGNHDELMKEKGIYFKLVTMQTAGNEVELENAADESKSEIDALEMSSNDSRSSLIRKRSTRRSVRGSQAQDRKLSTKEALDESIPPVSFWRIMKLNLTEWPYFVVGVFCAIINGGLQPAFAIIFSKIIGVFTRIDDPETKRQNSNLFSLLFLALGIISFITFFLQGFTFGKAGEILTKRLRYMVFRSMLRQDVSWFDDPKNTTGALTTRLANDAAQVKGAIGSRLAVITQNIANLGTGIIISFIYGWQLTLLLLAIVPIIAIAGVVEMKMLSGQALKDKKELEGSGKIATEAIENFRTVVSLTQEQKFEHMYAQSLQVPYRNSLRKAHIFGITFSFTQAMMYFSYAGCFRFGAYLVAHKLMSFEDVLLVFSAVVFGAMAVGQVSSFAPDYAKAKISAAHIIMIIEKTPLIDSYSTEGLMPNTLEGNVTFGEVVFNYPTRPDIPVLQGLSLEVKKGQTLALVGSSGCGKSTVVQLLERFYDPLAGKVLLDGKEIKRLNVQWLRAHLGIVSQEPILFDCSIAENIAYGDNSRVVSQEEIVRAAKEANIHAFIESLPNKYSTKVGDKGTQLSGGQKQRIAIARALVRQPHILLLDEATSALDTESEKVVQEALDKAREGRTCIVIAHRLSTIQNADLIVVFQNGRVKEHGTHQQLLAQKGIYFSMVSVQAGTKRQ

SMILES: CCCCCCCCCCCCOS(=O)(=O)[O-].[Na+] [sodium dodecyl sulfate]
TEER after recovery ([1]; positive control, growth medium within 24 h): 118 Ω·cm^2
TEER after exposure ([1]; positive control, immediate and remaining reduction): < 108 Ω·cm^2

SMILES: C[C@H]1O[C@@H](O[C@H]2[C@@H](O)C[C@H](O[C@H]3[C@@H](O)C[C@H](O[C@H]4CC[C@@]5(C)[C@H](CC[C@@H]6[C@@H]5C[C@@H](O)[C@]5(C)[C@@H](C7=CC(=O)OC7)CC[C@]65O)C4)O[C@@H]3C)O[C@@H]2C)C[C@H](O)[C@@H]1O [[^3H]-digoxin, reference compound]
Bi-directional transport in presence of enisamium iodide ([2]; [^3H]-digoxin 1 μmol·L^−1, enisamium iodide 10 μmol·L^−1, Caco-2): transported much more in the ba direction as compared to the ab

Papp A→B at 120 min [3, 6]: 0.18 ×10⁻⁶ cm/s
SMILES: O=C1OC2(c3ccc(O)cc3Oc3cc(O)ccc32)c2ccccc21 [fluorescein, reference compound]

Solubility classification according to the BCS [4]: highly soluble
Amount that can be dissolved in 250 mL of buffer solution ([4]; 37 °C): at least 31.8 g
solubility at 96 h ([4]; four buffer solutions (pH 1.2, 4.5, 6.8, 7.5), 25 °C, pH 1.2, aqueous buffer, thermodynamic from solid, four buffer solutions from pH 1.2 to 7.5, 25 °C): ~60 mg/mL
solubility ([4]; four buffer solutions (pH 1.2, 4.5, 6.8, 7.5), 37 °C, pH 1.2, aqueous buffer, thermodynamic from solid, four buffer solutions from pH 1.2 to 7.5, 37 °C, depending on the pH): 130 to 150 mg/mL
solubility at 96 h ([4]; hydrochloric acid/sodium chloride buffer pH 1.2, 25 °C, pH 1.2, simulated gastric fluid, thermodynamic from solid, pH 1.2, 25 °C, batch 170215): 63.2 mg/mL
solubility at 96 h ([4]; hydrochloric acid/sodium chloride buffer pH 1.2, 25 °C, pH 1.2, simulated gastric fluid, thermodynamic from solid, pH 1.2, 25 °C, batch 180215): 63.5 mg/mL
solubility at 96 h ([4]; hydrochloric acid/sodium chloride buffer pH 1.2, 25 °C, pH 1.2, simulated gastric fluid, thermodynamic from solid, pH 1.2, 25 °C, batch 190315): 63.2 mg/mL
solubility at 96 h ([4]; hydrochloric acid/sodium chloride buffer pH 1.2, 25 °C, pH 1.2, simulated gastric fluid, thermodynamic from solid, pH 1.2, 25 °C, mean of three batches): 63.3 mg/mL
solubility at 48 h ([4]; pH 1.2, simulated gastric fluid, thermodynamic from solid, batch 170215): 152 mg/mL
solubility at 48 h ([4]; pH 1.2, simulated gastric fluid, thermodynamic from solid, batch 180215): 155 mg/mL
solubility at 48 h ([4]; pH 1.2, simulated gastric fluid, thermodynamic from solid, batch 190315): 155 mg/mL
solubility at 48 h ([4]; pH 1.2, simulated gastric fluid, thermodynamic from solid, mean of three batches): 154 mg/mL
solubility at 96 h ([4]; potassium phosphate buffer pH 6.8, 25 °C, pH 6.8, aqueous buffer, thermodynamic from solid, pH 6.8, 25 °C, batch 170215): 60.8 mg/mL
solubility at 96 h ([4]; potassium phosphate buffer pH 6.8, 25 °C, pH 6.8, aqueous buffer, thermodynamic from solid, pH 6.8, 25 °C, batch 180215): 59.5 mg/mL
solubility at 96 h ([4]; potassium phosphate buffer pH 6.8, 25 °C, pH 6.8, aqueous buffer, thermodynamic from solid, pH 6.8, 25 °C, batch 190315): 60.2 mg/mL
solubility at 96 h ([4]; potassium phosphate buffer pH 6.8, 25 °C, pH 6.8, aqueous buffer, thermodynamic from solid, pH 6.8, 25 °C, mean of three batches): 60.2 mg/mL
solubility at 96 h ([4]; potassium phosphate buffer pH 6.8, 37 °C, pH 6.8, aqueous buffer, thermodynamic from solid, pH 6.8, 37 °C, batch 170215): 131 mg/mL
solubility at 96 h ([4]; potassium phosphate buffer pH 6.8, 37 °C, pH 6.8, aqueous buffer, thermodynamic from solid, pH 6.8, 37 °C, batch 180215): 128 mg/mL
solubility at 96 h ([4]; potassium phosphate buffer pH 6.8, 37 °C, pH 6.8, aqueous buffer, thermodynamic from solid, pH 6.8, 37 °C, batch 190315): 131 mg/mL
solubility at 96 h ([4]; potassium phosphate buffer pH 6.8, 37 °C, pH 6.8, aqueous buffer, thermodynamic from solid, pH 6.8, 37 °C, mean of three batches): 130 mg/mL
solubility at 96 h ([4]; potassium phosphate buffer pH 7.5, 25 °C, pH 7.5, aqueous buffer, thermodynamic from solid, pH 7.5, 25 °C, batch 170215): 58.9 mg/mL
solubility at 96 h ([4]; potassium phosphate buffer pH 7.5, 25 °C, pH 7.5, aqueous buffer, thermodynamic from solid, pH 7.5, 25 °C, batch 180215): 59.2 mg/mL
solubility at 96 h ([4]; potassium phosphate buffer pH 7.5, 25 °C, pH 7.5, aqueous buffer, thermodynamic from solid, pH 7.5, 25 °C, batch 190315): 59.1 mg/mL
solubility at 96 h ([4]; potassium phosphate buffer pH 7.5, 25 °C, pH 7.5, aqueous buffer, thermodynamic from solid, pH 7.5, 25 °C, mean of three batches): 59.1 mg/mL
solubility at 96 h ([4]; potassium phosphate buffer pH 7.5, 37 °C, pH 7.5, aqueous buffer, thermodynamic from solid, pH 7.5, 37 °C, batch 170215): 127 mg/mL
solubility at 96 h ([4]; potassium phosphate buffer pH 7.5, 37 °C, pH 7.5, aqueous buffer, thermodynamic from solid, pH 7.5, 37 °C, batch 180215): 130 mg/mL
solubility at 96 h ([4]; potassium phosphate buffer pH 7.5, 37 °C, pH 7.5, aqueous buffer, thermodynamic from solid, pH 7.5, 37 °C, batch 190315): 126 mg/mL
solubility at 96 h ([4]; potassium phosphate buffer pH 7.5, 37 °C, pH 7.5, aqueous buffer, thermodynamic from solid, pH 7.5, 37 °C, mean of three batches): 128 mg/mL
solubility at 96 h ([4]; sodium acetate/acetic acid buffer pH 4.5, 25 °C, pH 4.5, aqueous buffer, thermodynamic from solid, pH 4.5, 25 °C, batch 170215): 59.7 mg/mL
solubility at 96 h ([4]; sodium acetate/acetic acid buffer pH 4.5, 25 °C, pH 4.5, aqueous buffer, thermodynamic from solid, pH 4.5, 25 °C, batch 180215): 59.3 mg/mL
solubility at 96 h ([4]; sodium acetate/acetic acid buffer pH 4.5, 25 °C, pH 4.5, aqueous buffer, thermodynamic from solid, pH 4.5, 25 °C, batch 190315): 60.9 mg/mL
solubility at 96 h ([4]; sodium acetate/acetic acid buffer pH 4.5, 25 °C, pH 4.5, aqueous buffer, thermodynamic from solid, pH 4.5, 25 °C, mean of three batches): 60 mg/mL
solubility at 96 h ([4]; sodium acetate/acetic acid buffer pH 4.5, 37 °C, pH 4.5, aqueous buffer, thermodynamic from solid, pH 4.5, 37 °C, batch 170215): 132 mg/mL
solubility at 96 h ([4]; sodium acetate/acetic acid buffer pH 4.5, 37 °C, pH 4.5, aqueous buffer, thermodynamic from solid, pH 4.5, 37 °C, batch 180215): 133 mg/mL
solubility at 96 h ([4]; sodium acetate/acetic acid buffer pH 4.5, 37 °C, pH 4.5, aqueous buffer, thermodynamic from solid, pH 4.5, 37 °C, batch 190315): 136 mg/mL
solubility at 96 h ([4]; sodium acetate/acetic acid buffer pH 4.5, 37 °C, pH 4.5, aqueous buffer, thermodynamic from solid, pH 4.5, 37 °C, mean of three batches): 134 mg/mL
Papp A→B at 120 min ([3]; Caco-2, pH 7.4, Caco-2, donor concentrations 10–100 μM, KRB pH 7.4, read-out: Permeability coefficient (Papp), apical to basolateral): 0.2 to 0.3 ×10⁻⁶ cm/s
Evidence for active transport [5]: no evidence for active transport
Permeability classification [5]: low in vitro permeability
Fold lower permeation coefficient in ab direction with cyclosporin A compared to without CsA ([2]; human, Caco-2, 120 min, 10 μM, pH 7.4): more than 3 times
SMILES: C[n+]1ccc(C(=O)NCc2ccccc2)cc1.[I-] [enisamium iodide, 4-(benzylcarbamoyl)-1-methylpyridinium iodide]
TEER relative to TEER measured in medium without test substance ([1]; up to 100 μM, after 2 h of incubation): about 100%
P-gp-mediated transport of the substance ([2]; bi-directional transport 10 μM with/without cyclosporin A 12 μmol·L^−1): not indicative for a P-gp-mediated transport

Papp A→B at 120 min [3, 6]: 19.6 ×10⁻⁶ cm/s
SMILES: CC(C)NCC(O)COc1cccc2ccccc12 (stereo not shown) [propranolol, reference compound]

efflux ratio at 120 min ([3]; pH 7.4, Caco-2, efflux ratio, monolayer qualification marker, read-out: Papp (BA)/Papp (AB)): 17.1
Papp B→A at 120 min ([3]; pH 7.4, Caco-2, monolayer qualification marker): 4.5 ×10⁻⁶ cm/s
SMILES: COC(=O)c1ccccc1-c1c2ccc(=N)cc-2oc2cc(N)ccc12 [rhodamine 123, reference compound]
